≈ marks a conversion by molar mass, not a printed value. Where two headings read alike, the source gives them in different places.
Experiments:
Helicobacter pylori = tested on: Helicobacter pylori; design: method as in PMID 16377035; conditions: cited from earlier work
HeLa cancer cell line = assay: MTT cell viability assay, HeLa; assay type: cell-based; conditions: read-out: IC50 HeLa
Experimental: (§1) The cell viability assays of coumarin derivatives 10, 12, 13, 14a–g, and 15 were conducted against three cancer cell lines (HepG2, HeLa, and MDA-MB-231) and one normal cell line (LLC-MK2) using an MTT assay.
(§2) Stock solutions of coumarin derivatives 10, 12a, 13, 14a–g, and 15 were prepared in EtOH at a concentration of 5000 µg/mL. Prior to use, the stock solutions were further diluted to 128 µg/mL and added to the first wells. Two-fold serial dilutions were prepared, and final concentrations of 128 to 1 µg/mL in culture medium were achieved. Cells were seeded at a density of 5 × 10^4 cells/well in a 96-well plate and incubated for 16 h, followed by treatment with the test compounds. The control culture contained the carrier solvent of 2.5% dimethyl sulfoxide (DMSO). After 24 h, HepG2, HeLa, MDA-MB-231, and LLC-MK2 cells were then incubated with MTT (500 μg/mL) for 4 h. Then, DMSO was added to dissolve the blue formazan crystals formed, which were formed as a result of the action of cellular oxidoreductase enzymes on the MTT dye. Finally, the optical density at 450 nm was determined using a microplate reader.

B. subtilis TISTR 001 = assay: Antibacterial microbroth dilution MIC, B. subtilis; assay type: cell-based; conditions: Bacillus subtilis, read-out: MIC B. subtilis
Experimental: (§3) The antibacterial activities of coumarin derivatives 10, 12, 13, 14a–g, and 15 were evaluated against five reference standard bacteria, both gram-positive and gram-negative: B. cereus TISTR 2372, B. subtilis TISTR 001, S. aureus TISTR 2392, E. coli TISTR 073, and S. typhimurium TISTR 2519, using a standard microbroth dilution method.
(§4) The MIC values of coumarin derivatives 10, 12, 13, 14a–g, and 15 were determined through the microbroth dilution method in 96-well microtitre plates. The bacterial cultures were prepared from overnight cultures on nutrient broth (NB) at 37 °C for 24 h by diluting in NB compared with 0.5 McFarland. Coumarin derivatives 10, 12, 13, 14a–g, and 15 (5000 µg/mL) were prepared in EtOH, and 128 µg/mL of these were added to the first wells. Two-fold serial dilutions were prepared, and final concentrations of 128 to 1 µg/mL were achieved. The positive controls for penicillin G were determined, with the final concentrations from 128 to 1 µg/mL. In addition, an extra row of EtOH was used as a vehicle control to determine its possible inhibitory activity. Finally, 10 µL of bacterial suspension was added to each well. After the bacteria were incubated at 37 °C for 24 h, the microtitre plates were visually examined for bacterial growth; the growth rate was monitored at the optical density at 600 nm with a microplate reader.

E. coli TISTR 073 = assay: Antibacterial microbroth dilution MIC, E. coli; assay type: cell-based; conditions: Escherichia coli, read-out: MIC E. coli
Experimental: as §3, §4

S. aureus TISTR 2392 = assay: Antibacterial microbroth dilution MIC, S. aureus; assay type: cell-based; conditions: Staphylococcus aureus, read-out: MIC S. aureus
Experimental: as §3, §4

[1] = tested on: S. typhimurium TISTR 2519; assay: Antibacterial microbroth dilution MIC, S. typhimurium; assay type: cell-based; conditions: Salmonella enterica, 24 h, read-out: MIC S. typhimurium
Experimental: as §3, §4

B. cereus TISTR 2372 = assay: Antibacterial microbroth dilution MIC, B. cereus; assay type: cell-based; conditions: Bacillus cereus, read-out: MIC B. cereus
Experimental: as §3, §4

HepG2 cancer cell line = assay: MTT cell viability assay, HepG2; assay type: cell-based; conditions: read-out: IC50 HepG2
Experimental: as §1, §2

LLC-MK2 normal cell line = assay: MTT cell viability assay, LLC-MK2 normal cells; assay type: cell-based; conditions: Macaca mulatta, read-out: IC50 LLC-MK2
Experimental: as §1, §2

[2] = Homo sapiens, HeLa, 24 h, cancer cell line, MTT assay, 24 h treatment
[3] = TISTR001, Gram-positive, microbroth dilution, 37 °C, 24 h
[4] = TISTR073, Gram-negative, microbroth dilution, 37 °C, 24 h
[5] = TISTR2392, Gram-positive, microbroth dilution, 37 °C, 24 h
[6] = Gram-negative, microbroth dilution, 37 °C
[7] = TISTR2372, Gram-positive, microbroth dilution, 37 °C, 24 h
[8] = Homo sapiens, HepG2, 24 h, cancer cell line, MTT assay, 24 h treatment
[9] = LLC-MK2, normal cell line, MTT assay, 24 h treatment
[10] = cancer cell line, MTT assay, 24 h treatment

Row | SMILES | IC50 (HeLa cancer cell line; [2]) | melting point | MIC (B. subtilis TISTR 001; [3]) | MIC (E. coli TISTR 073; [4]) | MIC (S. aureus TISTR 2392; [5]) | MIC [1, 6] | MIC (B. cereus TISTR 2372; [7]) | IC50 (HepG2 cancer cell line; [8]) | IC50 (HeLa cancer cell line; [10]) | IC50 (HepG2 cancer cell line; [10]) | MIC H. pylori (Helicobacter pylori) | IC50 (LLC-MK2 normal cell line; [9]) | IC50 (HeLa cancer cell line; Homo sapiens, HeLa, 24 h) | MIC (B. subtilis TISTR 001; TISTR001, 24 h) | MIC (E. coli TISTR 073; TISTR073, 24 h) | MIC (S. aureus TISTR 2392; TISTR2392, 24 h) | MIC [1] | MIC (B. cereus TISTR 2372; TISTR2372, 24 h) | IC50 (HepG2 cancer cell line; Homo sapiens, HepG2, 24 h) | IC50 (LLC-MK2 normal cell line; LLC-MK2, 24 h)
1 | O=C(O)c1ccc(NC(=O)c2cc3ccccc3oc2=O)cc1 [4a] | – | – | – | – | – | – | – | – | – | – | 1 mg/L (≈ 3.23 µM) | – | – | – | – | – | – | – | – | –
2 | CC(C)=CCc1cc2cc(C(=O)Nc3ccccc3)c(=O)oc2cc1O [14a, 7-Hydroxy-6-(3-methylbut-2-en-1-yl)-2-oxo-N-phenyl-2H-chromene-3-carboxamide] | 10.4 µM | 258 to 259 °C | > 128 mg/L | > 128 mg/L | > 128 mg/L | > 128 mg/L | > 128 mg/L | 4.33 µM | – | – | – | 0.48 µM | – | – | – | – | – | – | – | –
3 | CC(C)=CCc1cc2cc(C(=O)Nc3ccc(F)cc3)c(=O)oc2cc1O [14b, N-(4-Fluorophenyl)-7-hydroxy-6-(3-methylbut-2-en-1-yl)-2-oxo-2H-chromene-3-carboxamide] | 0.39 to 0.75 µM | 259 to 261 °C | > 128 mg/L | > 128 mg/L | > 128 mg/L | > 128 mg/L | > 128 mg/L | 2.62 to 4.85 µM | 0.75 µM | 4.85 µM | – | > 100 µM | – | – | – | – | – | – | – | –
4 | CC(C)=CCc1cc2cc(C(=O)Nc3ccc(Cl)cc3)c(=O)oc2cc1O [14c, N-(4-Chlorophenyl)-7-hydroxy-6-(3-methylbut-2-en-1-yl)-2-oxo-2H-chromene-3-carboxamide] | 14 µM | 282 to 283 °C | > 128 mg/L | > 128 mg/L | > 128 mg/L | > 128 mg/L | > 128 mg/L | 30.3 µM | – | – | – | 66.8 µM | – | – | – | – | – | – | – | –
5 | CC(C)=CCc1cc2cc(C(=O)Nc3ccc(Br)cc3)c(=O)oc2cc1O [14d, N-(4-Bromophenyl)-7-hydroxy-6-(3-methylbut-2-en-1-yl)-2-oxo-2H-chromene-3-carboxamide] | 37.4 µM | 276 to 277 °C | > 128 mg/L | > 128 mg/L | > 128 mg/L | > 128 mg/L | > 128 mg/L | 45.8 µM | – | – | – | > 100 µM | – | – | – | – | – | – | – | –
6 | CC(C)=CCc1cc2cc(C(=O)Nc3cc(F)ccc3F)c(=O)oc2cc1O [14e, N-(2,5-Difluorophenyl)-7-hydroxy-6-(3-methylbut-2-en-1-yl)-2-oxo-2H-chromene-3-carboxamide] | 0.39 to 0.75 µM | 248 to 250 °C | > 128 mg/L | > 128 mg/L | > 128 mg/L | > 128 mg/L | > 128 mg/L | 2.62 to 4.85 µM | 0.39 µM | 2.62 µM | – | 1.33 µM | – | – | – | – | – | – | – | –
7 | CC(C)=CCc1cc2ccc(=O)oc2cc1O [compound 15, 6-(3-Methyl-2-buteny1)-7-hydroxycoumarin] | – | – | – | – | – | – | – | – | – | – | – | – | 13.5 µM | > 128 mg/L | > 128 mg/L | > 128 mg/L | > 128 mg/L | > 128 mg/L | 9.13 µM | 6.87 µM

More lines, main results first:

Row | IC50 (HeLa cancer cell line; [2]) | melting point | MIC (B. subtilis TISTR 001; [3]) | MIC (E. coli TISTR 073; [4]) | MIC (S. aureus TISTR 2392; [5]) | MIC [1, 6] | MIC (B. cereus TISTR 2372; [7]) | IC50 (HepG2 cancer cell line; [8]) | IC50 (HeLa cancer cell line; [10]) | IC50 (HepG2 cancer cell line; [10]) | SMILES | MIC H. pylori (Helicobacter pylori) | IC50 (LLC-MK2 normal cell line; [9]) | IC50 (HeLa cancer cell line; Homo sapiens, HeLa, 24 h) | MIC (B. subtilis TISTR 001; TISTR001, 24 h) | MIC (E. coli TISTR 073; TISTR073, 24 h) | MIC (S. aureus TISTR 2392; TISTR2392, 24 h) | MIC [1] | MIC (B. cereus TISTR 2372; TISTR2372, 24 h) | IC50 (HepG2 cancer cell line; Homo sapiens, HepG2, 24 h) | IC50 (LLC-MK2 normal cell line; LLC-MK2, 24 h)
8 | > 100 µM | 276 to 277 °C | > 128 mg/L | > 128 mg/L | > 128 mg/L | > 128 mg/L | > 128 mg/L | > 100 µM | – | – | CC(C)=CCc1cc2cc(C(=O)Nc3ccc(C)cc3)c(=O)oc2cc1O [14f, 7-Hydroxy-6-(3-methylbut-2-en-1-yl)-2-oxo-N-(p-tolyl)-2H-chromene-3-carboxamide] | – | 85.3 µM | – | – | – | – | – | – | – | –
9 | > 100 µM | 259 to 261 °C | > 128 mg/L | > 128 mg/L | > 128 mg/L | > 128 mg/L | > 128 mg/L | > 100 µM | – | – | COc1ccc(NC(=O)c2cc3cc(CC=C(C)C)c(O)cc3oc2=O)cc1 [14g, 7-Hydroxy-N-(4-methoxyphenyl)-6-(3-methylbut-2-en-1-yl)-2-oxo-2H-chromene-3-carboxamide] | – | > 100 µM | – | – | – | – | – | – | – | –
10 | 6.59 µM | – | – | – | – | – | – | 5.72 µM | – | – | CN(C)c1ccc2cc3ccc(N(C)C)cc3nc2c1 [Acridine orange, acridine orange, reference compound] | – | 82.3 µM | – | – | – | – | – | – | – | –
11 | 1.18 µM | – | – | – | – | – | – | 1.91 µM | – | – | COc1cccc2c1C(=O)c1c(O)c3c(c(O)c1C2=O)C[C@@](O)(C(=O)CO)C[C@@H]3O[C@H]1C[C@H](N)[C@H](O)[C@H](C)O1 [Doxorubicin, doxorubicin, reference compound] | – | 63.5 µM | – | – | – | – | – | – | – | –
12 | 80.4 µM | 187 to 188 °C | 128 mg/L (≈ 470 µM) | > 128 mg/L | 64 mg/L (≈ 235 µM) | > 128 mg/L | 128 mg/L (≈ 470 µM) | > 100 µM | – | – | CC1(C)C=Cc2cc3cc(C(=O)O)c(=O)oc3cc2O1 [compound 10, 8,8-dimethyl-2-oxo-2H,8H-pyrano[3,2-g]chromene-3-carboxylic acid] | – | > 100 µM | – | – | – | – | – | – | – | –
13 | > 100 µM | 187 to 188 °C | > 128 mg/L | > 128 mg/L | > 128 mg/L | > 128 mg/L | > 128 mg/L | 2.35 µM | – | – | CC1(C)C=Cc2cc3cc(C(=O)Nc4ccccc4)c(=O)oc3cc2O1 [compound 12, 8,8-dimethyl-2-oxo-N-phenyl-2H,8H-pyrano[3,2-g]chromene-3-carboxamide] | – | > 100 µM | – | – | – | – | – | – | – | –
14 | 26.4 µM | 237 to 238 °C | 128 mg/L (≈ 467 µM) | > 128 mg/L | 64 mg/L (≈ 233 µM) | > 128 mg/L | 32 mg/L (≈ 117 µM) | 81.7 µM | – | – | CC(C)=CCc1cc2cc(C(=O)O)c(=O)oc2cc1O [compound 13, 3-carboxy-6-(3-methyl-2-butenyl)-7-hydroxy-coumarin] | – | 38 µM | – | – | – | – | – | – | – | –
15 | – | – | 2 mg/L (≈ 5.98 µM) | 32 mg/L (≈ 95.7 µM) | 16 mg/L (≈ 47.8 µM) | 64 mg/L (≈ 191 µM) | 16 mg/L (≈ 47.8 µM) | – | – | – | CC1(C)S[C@@H]2[C@H](NC(=O)Cc3ccccc3)C(=O)N2[C@H]1C(=O)O [penicillin G, reference compound] | – | – | – | – | – | – | – | – | – | –

From paper PMC8002271, “Synthesis and Biological Activity Evaluation of Coumarin-3-Carboxamide Derivatives” (Molecules, 2021)
